Key:
Shigella flexneri [1] = test: Antibacterial activity against Shigella flexneri assessed as concentration required to obtain a zone of inhibition of 20 mm after 18 to 24 hr by disk diffusion method; format: functional
Pseudomonas aeruginosa [2] = test: Antibacterial activity against Pseudomonas aeruginosa assessed as concentration required to obtain a zone of inhibition of 20 mm after 18 to 24 hr by disk diffusion method; format: functional
Proteus mirabilis [3] = test: Antibacterial activity against Proteus mirabilis assessed as concentration required to obtain a zone of inhibition of 10 mm after 18 to 24 hr by disc diffusion method; format: functional
Citrobacter [4] = test: Antibacterial activity against Citrobacter assessed as zone of inhibition at 5 to 40 ug/ml after 18 to 24 hr by disk diffusion method relative to gatifloxacin; format: functional
[5] = Antibacterial activity against Hofmanni bacterium assessed as concentration required to obtain a zone of inhibition of 10 mm after 18 to 24 hr by disc diffusion method
Fusarium solani [6] = test: Antifungal activity against Fusarium solani assessed as concentration required to obtain a zone of inhibition of 40 mm after 7 days by disk diffusion method; format: functional
Citrobacter [7] = test: Antibacterial activity against Citrobacter assessed as concentration required to obtain a zone of inhibition of 10 mm after 18 to 24 hr by disk diffusion method; format: functional
Shigella sp. = test: Antibacterial activity against Shigella typhi assessed as zone of inhibition after 18 to 24 hr by disc diffusion method relative to gatifloxacin; format: functional
Bacillus subtilis = test: Antibacterial activity against Bacillus subtilis assessed as concentration required to obtain a zone of inhibition of 20 mm after 18 to 24 hr by disk diffusion method; format: functional
Blood [8] = test: Antioxidant activity in Homo sapiens (human) whole blood assessed as inhibition of ROS production at 50 ug/ml after 30 min by luminol-enhanced chemiluminescence assay; format: functional; conditions: 0.5 h
Shigella flexneri [9] = test: Antibacterial activity against Shigella flexneri assessed as concentration required to obtain a zone of inhibition of 5 mm after 18 to 24 hr by disk diffusion method; format: functional
Blood [10] = test: Antioxidant activity in Homo sapiens (human) whole blood assessed as inhibition of ROS production at 100 ug/ml after 30 min by luminol-enhanced chemiluminescence assay; format: functional; conditions: 0.5 h
T-cell [11] = test: Anti-inflammatory activity in Homo sapiens (human) T lymphocytes assessed as inhibition of PHA-induced [3H] thymidine uptake at 3.12 ug/ml incubated for 72 hr prior to [3H]thymidine addition measured after 18 hr by liquid scintillation method; format: functional
Staphylococcus aureus [12] = test: Antibacterial activity against methicillin-resistant Staphylococcus aureus assessed as concentration required to obtain a zone of inhibition of 5 mm after 18 to 24 hr by disk diffusion method; format: functional
Saccharomyces cerevisiae = test: Antifungal activity against Saccharomyces cerevisiae assessed as zone of inhibition at 5 to 40 ug/ml after 7 days by disk diffusion method relative to gatifloxacin; format: functional
T-cell [13] = test: Anti-inflammatory activity in Homo sapiens (human) T lymphocytes assessed as inhibition of PHA-induced [3H] thymidine uptake at 50 ug/ml incubated for 72 hr prior to [3H]thymidine addition measured after 18 hr by liquid scintillation method; format: functional
Trichophyton rubrum [14] = test: Antifungal activity against Trichophyton rubrum assessed as concentration required to obtain a zone of inhibition of 40 mm after 7 days by disk diffusion method; format: functional
Citrobacter [15] = test: Antibacterial activity against Citrobacter assessed as concentration required to obtain a zone of inhibition of 5 mm after 18 to 24 hr by disk diffusion method; format: functional
Pseudomonas aeruginosa [16] = test: Antibacterial activity against Pseudomonas aeruginosa assessed as concentration required to obtain a zone of inhibition of 10 mm after 18 to 24 hr by disk diffusion method; format: functional
Shigella flexneri [17] = test: Antibacterial activity against Shigella flexneri assessed as concentration required to obtain a zone of inhibition of 10 mm after 18 to 24 hr by disk diffusion method; format: functional
Escherichia coli [18] = test: Antibacterial activity against Escherichia coli assessed as zone of inhibition at 5 to 40 ug/ml after 18 to 24 hr by disk diffusion method relative to gatifloxacin; format: functional
Citrobacter [19] = test: Antibacterial activity against Citrobacter assessed as concentration required to obtain a zone of inhibition of 20 mm after 18 to 24 hr by disk diffusion method; format: functional
Staphylococcus aureus [20] = test: Antibacterial activity against methicillin-resistant Staphylococcus aureus assessed as zone of inhibition at 5 to 40 ug/ml after 18 to 24 hr by disk diffusion method relative to gatifloxacin; format: functional
[21] = Antibacterial activity against Hofmanni bacterium assessed as concentration required to obtain a zone of inhibition of 20 mm after 18 to 24 hr by disc diffusion method
Candida albicans [22] = test: Antifungal activity against Candida albicans assessed as zone of inhibition at 5 to 40 ug/ml after 7 days by disk diffusion method relative to gatifloxacin; format: functional
Proteus mirabilis [23] = test: Antibacterial activity against Proteus mirabilis assessed as concentration required to obtain a zone of inhibition of 20 mm after 18 to 24 hr by disc diffusion method; format: functional
Trichophyton rubrum [24] = test: Antifungal activity against Trichophyton rubrum assessed as concentration required to obtain a zone of inhibition of 20 mm after 7 days by disk diffusion method; format: functional
Fusarium solani [25] = test: Antifungal activity against Fusarium solani assessed as zone of inhibition at 5 to 40 ug/ml after 7 days by disk diffusion method relative to gatifloxacin; format: functional
Candida albicans [26] = test: Antifungal activity against Candida albicans assessed as concentration required to obtain a zone of inhibition of 20 mm after 7 days by disk diffusion method; format: functional
Pseudomonas aeruginosa [27] = test: Antibacterial activity against Pseudomonas aeruginosa assessed as concentration required to obtain a zone of inhibition of 5 mm after 18 to 24 hr by disk diffusion method; format: functional
Klebsiella pneumoniae [28] = test: Antibacterial activity against Klebsiella pneumoniae assessed as zone of inhibition at 5 to 40 ug/ml after 18 to 24 hr by disk diffusion method relative to gatifloxacin; format: functional
Escherichia coli [29] = test: Antibacterial activity against Escherichia coli assessed as concentration required to obtain a zone of inhibition of 20 mm after 18 to 24 hr by disk diffusion method; format: functional
Klebsiella pneumoniae [30] = test: Antibacterial activity against Klebsiella pneumoniae assessed as concentration required to obtain a zone of inhibition of 5 mm after 18 to 24 hr by disk diffusion method; format: functional
Pseudomonas aeruginosa [31] = test: Antibacterial activity against Pseudomonas aeruginosa assessed as zone of inhibition at 5 to 40 ug/ml after 18 to 24 hr by disk diffusion method relative to gatifloxacin; format: functional
[32] = Antibacterial activity against Hofmanni bacterium assessed as concentration required to obtain a zone of inhibition of 5 mm after 18 to 24 hr by disc diffusion method
Proteus mirabilis [33] = test: Antibacterial activity against Proteus mirabilis assessed as zone of inhibition at 5 to 40 ug/ml after 18 to 24 hr by disc diffusion method relative to gatifloxacin; format: functional
Klebsiella pneumoniae [34] = test: Antibacterial activity against Klebsiella pneumoniae assessed as concentration required to obtain a zone of inhibition of 10 mm after 18 to 24 hr by disk diffusion method; format: functional

Row | Compound | Activity (Shigella flexneri [1]) [µg/mL] | Activity (Pseudomonas aeruginosa [2]) [µg/mL] | Activity (Proteus mirabilis [3]) [µg/mL] | inhibition zone (IZ) (Citrobacter [4]) [%] | Activity [5] [µg/mL] | Activity (Fusarium solani [6]) [µg/mL] | Activity (Citrobacter [7]) [µg/mL] | inhibition zone (IZ) (Shigella sp.) [%] | Activity (Bacillus subtilis) [µg/mL] | inhibition at 50 µg/mL (Blood [8]) [%] | Activity (Shigella flexneri [9]) [µg/mL] | inhibition at 100 µg/mL (Blood [10]) [%] | inhibition at 3.12 µg/mL (T-cell [11]) [%] | Activity (Staphylococcus aureus [12]) [µg/mL] | inhibition zone (IZ) (Saccharomyces cerevisiae) [%] | inhibition at 50 µg/mL (T-cell [13]) [%] | Activity (Trichophyton rubrum [14]) [µg/mL] | Activity (Citrobacter [15]) [µg/mL] | Activity (Pseudomonas aeruginosa [16]) [µg/mL] | Activity (Shigella flexneri [17]) [µg/mL] | further results
1 | COc1c(N2CCN(C(=O)c3ccccc3)C(C)C2)c(F)cc2c(=O)c(C(=O)O)cn(C3CC3)c12.O (stereo unspecified) | 14 | 18 | 11 | 47.6 | 12 | 19 | 10 | 80.2 | 18 | 11.1 | 11 | 15 | -59.5 | 9 | 0 | -6.9 | 27 | 8 | 12 | 13 | inhibition zone (IZ) (Escherichia coli [18]): 117.3%; Activity (Citrobacter [19]): 12 µg/mL; inhibition zone (IZ) (Staphylococcus aureus [20]): 87.4%; Activity [21]: 14 µg/mL; inhibition zone (IZ) (Candida albicans [22]): 141%; Activity (Proteus mirabilis [23]): 12 µg/mL; Activity (Trichophyton rubrum [24]): 21 µg/mL; inhibition zone (IZ) (Fusarium solani [25]): 120%; Activity (Candida albicans [26]): 10 µg/mL; Activity (Pseudomonas aeruginosa [27]): 10 µg/mL; inhibition zone (IZ) (Klebsiella pneumoniae [28]): 99.8%; Activity (Escherichia coli [29]): 19 µg/mL; Activity (Klebsiella pneumoniae [30]): 8 µg/mL; inhibition zone (IZ) (Pseudomonas aeruginosa [31]): 117.9%; Activity [32]: 6 µg/mL; inhibition zone (IZ) (Proteus mirabilis [33]): 78.8%; Activity (Klebsiella pneumoniae [34]): 14 µg/mL
2 | CCCCCCCC(=O)N1CCN(c2c(F)cc3c(=O)c(C(=O)O)cn(C4CC4)c3c2OC)CC1C.O (stereo unspecified) | 20 | 11 | 12 | 51.5 | 11 | 19 | 10 | 87.5 | 13 | 89.2 | 12 | 96.1 | -59.5 | 7 | 0 | -6.9 | 17 | 8 | 10 | 15 | inhibition zone (IZ) (Escherichia coli [18]): 90.78%; Activity (Citrobacter [19]): 15 µg/mL; inhibition zone (IZ) (Staphylococcus aureus [20]): 76.7%; Activity [21]: 14 µg/mL; inhibition zone (IZ) (Candida albicans [22]): 218%; Activity (Proteus mirabilis [23]): 14 µg/mL; Activity (Trichophyton rubrum [24]): 16 µg/mL; inhibition zone (IZ) (Fusarium solani [25]): 110%; Activity (Candida albicans [26]): 16 µg/mL; Activity (Pseudomonas aeruginosa [27]): 8 µg/mL; inhibition zone (IZ) (Klebsiella pneumoniae [28]): 113%; Activity (Escherichia coli [29]): 14 µg/mL; Activity (Klebsiella pneumoniae [30]): 13 µg/mL; inhibition zone (IZ) (Pseudomonas aeruginosa [31]): 78.57%; Activity [32]: 7 µg/mL; inhibition zone (IZ) (Proteus mirabilis [33]): 92%; Activity (Klebsiella pneumoniae [34]): 14 µg/mL
3 | COc1c(N2CCN(C(C)=O)C(C)C2)c(F)cc2c(=O)c(C(=O)O)cn(C3CC3)c12.O (stereo unspecified) | 24 | 24 | 10 | 98.9 | 12 | 15 | 21 | 113 | 17 | -17.4 | 19 | -15.1 | -23.4 | 14 | 0 | -52.3 | 34 | 17 | 17 | 22 | inhibition zone (IZ) (Escherichia coli [18]): 134.8%; Activity (Citrobacter [19]): 24 µg/mL; inhibition zone (IZ) (Staphylococcus aureus [20]): 124%; Activity [21]: 16 µg/mL; inhibition zone (IZ) (Candida albicans [22]): 206%; Activity (Proteus mirabilis [23]): 12 µg/mL; Activity (Trichophyton rubrum [24]): 28 µg/mL; inhibition zone (IZ) (Fusarium solani [25]): 93.3%; Activity (Candida albicans [26]): 16 µg/mL; Activity (Pseudomonas aeruginosa [27]): 11 µg/mL; inhibition zone (IZ) (Klebsiella pneumoniae [28]): 158%; Activity (Escherichia coli [29]): 22 µg/mL; Activity (Klebsiella pneumoniae [30]): 16 µg/mL; inhibition zone (IZ) (Pseudomonas aeruginosa [31]): 150.1%; Activity [32]: 8 µg/mL; inhibition zone (IZ) (Proteus mirabilis [33]): 76.6%; Activity (Klebsiella pneumoniae [34]): 23 µg/mL

— ChEMBL document CHEMBL3044830, “Synthesis, characterization, antibacterial, antifungal, and immunomodulating activities of gatifloxacin derivatives” (Med Chem Res, 2010)
